The NIST ThermoML archive (doi:10.1016/j.fluid.2011.03.031)
± gives the expanded uncertainty stated by the source.

Assay: wn = mass fraction of the nth substance listed
Details: 101 kPa, Liquid, w1 = 0.321; for electrical conductivity: Phywe conductometer; for mass density: Vibrating tube method

CCN(CC)CC [triethylamine] + O
Details	electrical conductivity [S/m]	mass density [kg/m3]
284.65 K	0.04696 ± 0.00011	935.6 ± 0.4
285.14 K	0.04816 ± 0.0001	935.2 ± 0.4
285.64 K	0.04926 ± 0.0001	934.7 ± 0.4
286.14 K	0.05046 ± 0.0001	934.2 ± 0.4
286.65 K	0.05156 ± 0.0001	933.7 ± 0.4
287.14 K	0.05276 ± 0.0001	933.1 ± 0.4
287.65 K	0.05396 ± 0.0001	932.5 ± 0.4
288.09 K	0.05496 ± 0.0001	932 ± 0.4
288.59 K	0.05616 ± 0.0001	931.4 ± 0.4
288.89 K	0.05676 ± 0.0001	931 ± 0.4
289.14 K	0.05736 ± 0.00011	930.7 ± 0.4
289.42 K	0.05806 ± 0.0001	930.3 ± 0.4
289.65 K	0.05856 ± 0.0001	930 ± 0.4
289.91 K	0.05916 ± 0.0001	929.6 ± 0.4
290.15 K	0.05976 ± 0.00011	929.3 ± 0.4
290.33 K	0.06026 ± 0.00012	929 ± 0.4
290.44 K	0.06056 ± 0.0001	928.9 ± 0.4
290.55 K	0.06076 ± 0.0001	928.7 ± 0.4
290.65 K	0.06106 ± 0.00013	928.6 ± 0.4
290.75 K	0.06136 ± 0.00013	928.4 ± 0.4
290.84 K	0.06166 ± 0.00013	928.3 ± 0.4
290.94 K	0.06196 ± 0.00012	928.2 ± 0.4
291.05 K	0.06226 ± 0.00012	928 ± 0.4
291.15 K	0.06256 ± 0.00014	927.8 ± 0.4
291.19 K	0.06276 ± 0.00013	927.8 ± 0.4
291.24 K	0.06286 ± 0.00013	927.7 ± 0.4
291.29 K	0.06306 ± 0.00017	927.6 ± 0.4
291.34 K	0.06326 ± 0.00015	927.5 ± 0.4
291.39 K	0.06346 ± 0.00015	927.5 ± 0.4
